Reference: PMC10381309 (Journal of Fungi, 2023)

How the values were obtained:
Assay in all cases: Chequerboard synergism assay (FICI)
Type in all cases: cell-based
[1] = test system: Exophiala dermatitidis (ATCC 28869); conditions: E. dermatitidis
Method: (§1) To assess the type of interaction between the hit drugs and the antifungal drugs most used in the treatment of CBM (itraconazole and terbinafine), the fractional inhibitory concentration index (FICI) was determined, which defines the type of interaction between drugs in combination as follows: synergism if FICI ≤ 0.5; indifference if 0.5 < FICI ≤ 4; and antagonism if FICI > 4 [39]. The FICI was obtained by the sum of the fractional inhibitory concentrations (FIC) or by the formula: (A/MIC(a) = FIC_A) + (B/MIC(b) = FIC_B) = FICI, where: A = MIC of the drug (a) in combination; MIC (a) = MIC of drug (a) alone; B = MIC of drug (b) in combination; and MIC (b) = MIC of drug (b) alone. The test was carried out using the chequerboard method, in which the two drugs were applied in a single well of a 96-well plate, so that in each of the wells there were different concentrations of the combinations between the substance and the antifungal agent (Figure S1). Drug dilutions were prepared following the methodology proposed by EUCAST, starting from a stock solution of the hit drug or antifungal drug 100× concentrated, according to the methodology described to determine the MIC [36]. Hit drug A/antifungal drug B serial microdilution preparations were performed following the above mentioned protocol, observing the final concentration in the wells after the addition of drugs and inoculum. […] Column 12 was reserved for drug B (itraconazole or terbinafine) susceptibility testing. Row H was reserved for the selected NCC substance. The other combined drug and substance concentrations were distributed between columns 2 and 11 in rows A to G. Drug concentrations ranged from 0.062 μM to 4 µM for itraconazole and terbinafine, and from 0.125 μM to 64 µM for the hit drug on the combination boards.

[2] = test system: Phialophora verrucosa (CFP 00937); conditions: P. verrucosa
Method: as §1

[3] = test system: Fonsecaea pedrosoi (CFP 00791); conditions: F. pedrosoi
Method: as §1

[4] = test system: Fonsecaea nubica (CFP 00912); conditions: F. nubica
Method: as §1

[5] = test system: Exophiala heteromorpha (ATCC 28180); conditions: E. heteromorpha
Method: as §1

[6] = test system: Rhinocladiela similis (CFP 00790); conditions: R. similis
Method: as §1

[7] = test system: Fonsecaea monophora (CFP 00911); conditions: F. monophora
Method: as §1

[8] = test system: Cladophialophora carrionii (CFP 00910); conditions: C. carrionii
Method: as §1

SMILES: CCCSc1ccc2nc(NC(=O)OC)[nH]c2c1 [Albendazole]
- FICI Albendazole + Itraconazole ([1]; combination with itraconazole): 1.06
- FICI Albendazole + Terbinafine ([1]; combination with terbinafine): 1.06
- FICI Albendazole + Itraconazole ([2]; combination with itraconazole): 1.125
- FICI Albendazole + Terbinafine ([2]; combination with terbinafine): 2.12
- FICI Albendazole + Itraconazole ([3]; combination with itraconazole): 1
- FICI Albendazole + Terbinafine ([3]; combination with terbinafine): 1.12
- FICI Albendazole + Itraconazole ([4]; combination with itraconazole): 1.25
- FICI Albendazole + Terbinafine ([4]; combination with terbinafine): 1.12
- FICI Albendazole + Itraconazole ([5]; combination with itraconazole): 1.03
- FICI Albendazole + Terbinafine ([5]; combination with terbinafine): 1.06
- FICI Albendazole + Itraconazole ([6]; combination with itraconazole): 0.62
- FICI Albendazole + Terbinafine ([6]; combination with terbinafine): 2
- FICI Albendazole + Itraconazole ([7]; combination with itraconazole): 1.50
- FICI Albendazole + Terbinafine ([7]; combination with terbinafine): 1.12
- FICI Albendazole + Itraconazole ([8]; combination with itraconazole): 1.06
- FICI Albendazole + Terbinafine ([8]; combination with terbinafine): 1.06
